Measurements reported in patent US9763445B2, “Safened herbicidal compositions comprising a pyridine carboxylic acid herbicide” (Dow AgroSciences, LLC, priority 2014, dated 2017).

Experiments:
winter wheat (TRZAW) = assay: Postemergence greenhouse trial, % visual injury on winter wheat; assay type: in vivo, Triticum aestivum
Procedure, shortened: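 Greenhouse crops at second to third true leaf stage sprayed postemergence at 187 L/ha with herbicide (g ae/ha) plus safener (g ai/ha) in acetone/DMSO diluted into 1.5% v/v Agri-dex. Injury scored visually versus solvent-blank controls after 20-22 d, 0 (none) to 100% (complete kill); expected mixture effects by Colby's equation.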

wild buckwheat (POLCO) = assay: Postemergence greenhouse trial, % visual injury on wild buckwheat; assay type: in vivo, Polygonum convolvulus; details: for % visual injury, observed (Ob): POLCO
Procedure, shortened: (§1)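 Visual injury, 0 (none) to 100 (complete kill), rated 20-22 d after overhead track-sprayer application at 187 L/ha; Colby's equation gave expected mixture responses. Herbicide (g ae/ha) and cloquintocet-mexyl safener (g ai/ha) diluted in aqueous 1.5% v/v Agri-dex, applied to weeds at 2–3 true leaves.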

shepherd's purse (CAPBP) = assay: Postemergence greenhouse trial, % visual injury on shepherd's purse; assay type: in vivo, Capsella bursa-pastoris
Russian thistle (SASKR) = assay: Postemergence greenhouse trial, % visual injury on Russian thistle; assay type: in vivo, Salsola kali
cornflower (CENCY) = assay: Postemergence greenhouse trial, % visual injury on cornflower; assay type: in vivo, Centaurea cyanus or Cyanus segetum
cleavers (GALAP) = assay: Postemergence greenhouse trial, % visual injury on cleavers; assay type: in vivo, Galium aparine
Procedure: Seeds of the desired test plant species were planted in Sun Gro MetroMix® 306 planting mixture, which typically has a pH of 6.0 to 6.8 and an organic matter content of about 30 percent, in plastic pots with a surface area of 103.2 square centimeters (cm^2). When required to ensure good germination and healthy plants, a fungicide treatment and/or other chemical or physical treatment was applied. The plants were grown for 7-36 days (d) in a greenhouse with an approximate 14-hour (h) photoperiod which was maintained at about 23° C. during the day and 22° C. during the night. Nutrients and water were added on a regular basis and supplemental lighting was provided with overhead metal halide 1000-Watt lamps as necessary. The plants were employed for testing when they reached the second or third true leaf stage.
Weighed amounts of technical material were dissolved in a volume of 97:3 volume per volume (v/v) acetone/dimethyl sulfoxide (DMSO) to stock solutions. […] The concentrated stock solutions were diluted with an aqueous mixture of 1.5% v/v of Agri-dex crop oil concentrate to provide the appropriate application rates. Compound requirements are based upon a 12 milliliter (mL) application volume at a rate of 187 liters per hectare (L/ha). Stocks solutions of the safeners were prepared following the same procedure. Spray solutions of the safeners and experimental compound mixtures were prepared by adding the stock solutions to the appropriate amount of dilution solution to form a 12 mL spray solution in two-way combinations. Formulated compounds were applied to the plant material with an overhead Mandel track sprayer equipped with 8002E nozzles calibrated to deliver 187 L/ha over an application area of 0.503 square meters (m^2) at a spray height of 18 inches (43 centimeters (cm)) above average plant canopy. Control plants were sprayed in the same manner with the solvent blank. All herbicide application (component a) rates are in g ae/ha and all safener (component b) rates are in g ai/ha.
The treated plants and control plants were placed in a greenhouse as described above and watered by sub-irrigation to prevent wash-off of the test compounds. After 20-22 d, the condition of the test plants as compared with that of the control plants was determined visually and scored on a scale of 0 to 100 percent where 0 corresponds to no injury and 100 corresponds to complete kill. The condition of the test plants was compared with that of the control plants as determined visually and scored on a scale of 0 to 100 percent, where 0 corresponds to no injury and 100 corresponds to complete kill. Colby's equation was used to determine the herbicidal effects expected from the mixtures.
The safener cloquintocet-mexyl was combined with compound 1, compound 2, compound 3, compound 7, compound 8, compound 9, compound 10, compound 11, compound 12, compound 13, compound 14, compound 15, compound 16, compound 17, compound 18, compound 19, and compound 20, and applied to spring wheat (TRZAS), winter wheat (TRZAW), and spring barley (HORVS) and the phytotoxicity of the herbicidal compositions was measured. […]

chickweed (STEME) = assay: Postemergence greenhouse trial, % visual injury on chickweed; assay type: in vivo, Stellaria media; details: alone, 35 g/ha
Procedure, shortened: as §1

prickly lettuce (LACSE) = assay: Postemergence greenhouse trial, % visual injury on prickly lettuce; assay type: in vivo, Lactuca serriola
Procedure, shortened: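 Herbicide rates g ae/ha, safener (cloquintocet-mexyl) rates g ai/ha; spray carrier 1.5% v/v crop oil concentrate, 187 L/ha, 2nd–3rd leaf stage. Rating: visual % injury at 20-22 d.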

[1] = compound 0 g/ha, CQC-m 4.375 g/ha
[2] = compound 0 g/ha, CQC-m 8.75 g/ha
[3] = compound 0 g/ha, CQC-m 17.5 g/ha

CCCCCC(C)OC(=O)COc1ccc(Cl)c2cccnc12 (stereo not drawn) [CQC-m, cloquintocet-mexyl, reference compound]
0%: % visual injury, Ob (winter wheat (TRZAW); TRZAW, compound 0 g/ha, CQC-m 35 g/ha) | % visual injury, Ob (winter wheat (TRZAW); TRZAW, compound 0 g/ha, CQC-m 70 g/ha) | % visual injury, observed (Ob) (winter wheat (TRZAW); TRZAW, safener alone 2.5 g/ha) | % visual injury, observed (Ob) (winter wheat (TRZAW); TRZAW, safener alone 5 g/ha) | % visual injury, observed (Ob) (winter wheat (TRZAW); TRZAW, safener alone 10 g/ha) | % visual injury, observed (Ob) (winter wheat (TRZAW); TRZAW, safener alone 20 g/ha) | % visual injury, Ob (winter wheat (TRZAW); alone, 35 g/ha) | % visual injury, Ob (winter wheat (TRZAW); alone, 70 g/ha) | % visual injury, observed (Ob) (wild buckwheat (POLCO); compound 8 0 + CQC-m 4.375 g/ha) | % visual injury, observed (Ob) (wild buckwheat (POLCO); compound 8 0 + CQC-m 8.75 g/ha) | % visual injury, observed (Ob) (wild buckwheat (POLCO); compound 8 0 + CQC-m 17.5 g/ha) | % visual injury, observed (Ob) (wild buckwheat (POLCO); compound 8 0 + CQC-m 35 g/ha) | % visual injury, observed (Ob) (wild buckwheat (POLCO); compound 8 0 + CQC-m 70 g/ha) | % visual injury, Ob (wild buckwheat (POLCO); alone, 35 g/ha) | % visual injury, Ob (shepherd's purse (CAPBP); compound 0, CQC-m 4.375 g/ha) | % visual injury, Ob (shepherd's purse (CAPBP); compound 0, CQC-m 8.75 g/ha) | % visual injury, Ob (shepherd's purse (CAPBP); compound 0, CQC-m 17.5 g/ha) | % visual injury, Ob (shepherd's purse (CAPBP); compound 0, CQC-m 35 g/ha) | % visual injury, Ob (shepherd's purse (CAPBP); compound 0, CQC-m 70 g/ha) | % visual injury, Ob (shepherd's purse (CAPBP); [1]) | % visual injury, Ob (shepherd's purse (CAPBP); [2]) | % visual injury, Ob (shepherd's purse (CAPBP); [3]) | % visual injury, Ob (shepherd's purse (CAPBP); compound 0 g/ha, CQC-m 35 g/ha) | % visual injury, Ob (shepherd's purse (CAPBP); compound 0 g/ha, CQC-m 70 g/ha) | % visual injury, Ob (Russian thistle (SASKR); SASKR, 4.375 g/ha, applied alone) | % visual injury, Ob (Russian thistle (SASKR); SASKR, 8.75 g/ha, applied alone) | % visual injury, Ob (Russian thistle (SASKR); SASKR, 17.5 g/ha, applied alone) | % visual injury, Ob (Russian thistle (SASKR); SASKR, 35 g/ha, applied alone) | % visual injury, Ob (Russian thistle (SASKR); SASKR, 70 g/ha, applied alone) | % visual injury, Ob (Russian thistle (SASKR); SASKR, compound 0, CQC-m 4.375 g/ha) | % visual injury, Ob (Russian thistle (SASKR); SASKR, compound 0, CQC-m 8.75 g/ha) | % visual injury, Ob (Russian thistle (SASKR); SASKR, compound 0, CQC-m 17.5 g/ha) | % visual injury, Ob (Russian thistle (SASKR); SASKR, compound 0, CQC-m 35 g/ha) | % visual injury, Ob (Russian thistle (SASKR); SASKR, compound 0, CQC-m 70 g/ha) | % visual injury, Ob (Russian thistle (SASKR); SASKR, compound 0 g/ha, CQC-m 4.375 g/ha) | % visual injury, Ob (Russian thistle (SASKR); SASKR, compound 0 g/ha, CQC-m 8.75 g/ha) | % visual injury, Ob (Russian thistle (SASKR); SASKR, compound 0 g/ha, CQC-m 17.5 g/ha) | % visual injury, Ob (Russian thistle (SASKR); SASKR, compound 0 g/ha, CQC-m 35 g/ha) | % visual injury, Ob (Russian thistle (SASKR); SASKR, compound 0 g/ha, CQC-m 70 g/ha) | % visual injury, observed (Ob) (Russian thistle (SASKR); SASKR, compound 8 0 + CQC-m 4.375 g/ha) | % visual injury, observed (Ob) (Russian thistle (SASKR); SASKR, compound 8 0 + CQC-m 8.75 g/ha) | % visual injury, observed (Ob) (Russian thistle (SASKR); SASKR, compound 8 0 + CQC-m 17.5 g/ha) | % visual injury, observed (Ob) (Russian thistle (SASKR); SASKR, compound 8 0 + CQC-m 35 g/ha) | % visual injury, observed (Ob) (Russian thistle (SASKR); SASKR, compound 8 0 + CQC-m 70 g/ha) | % visual injury, Ob (Russian thistle (SASKR); alone, 4.375 g/ha) | % visual injury, Ob (Russian thistle (SASKR); alone, 8.75 g/ha) | % visual injury, Ob (Russian thistle (SASKR); alone, 17.5 g/ha) | % visual injury, Ob (Russian thistle (SASKR); alone, 35 g/ha) | % visual injury, Ob (Russian thistle (SASKR); alone, 70 g/ha) | % visual injury, Ob (cornflower (CENCY); CENCY, compound 0, CQC-m 4.375 g/ha) | % visual injury, Ob (cornflower (CENCY); CENCY, compound 0, CQC-m 8.75 g/ha) | % visual injury, Ob (cornflower (CENCY); CENCY, compound 0, CQC-m 17.5 g/ha) | % visual injury, Ob (cornflower (CENCY); CENCY, compound 0, CQC-m 35 g/ha) | % visual injury, Ob (cornflower (CENCY); CENCY, compound 0, CQC-m 70 g/ha) | % visual injury, Ob (cornflower (CENCY); CENCY, compound 0 g/ha, CQC-m 4.375 g/ha) | % visual injury, Ob (cornflower (CENCY); CENCY, compound 0 g/ha, CQC-m 8.75 g/ha) | % visual injury, Ob (cornflower (CENCY); CENCY, compound 0 g/ha, CQC-m 17.5 g/ha) | % visual injury, Ob (cornflower (CENCY); CENCY, compound 0 g/ha, CQC-m 35 g/ha) | % visual injury, Ob (cornflower (CENCY); CENCY, compound 0 g/ha, CQC-m 70 g/ha) | % visual injury, Ob (cornflower (CENCY); alone, 17.5 g/ha) | % visual injury, Ob (cornflower (CENCY); alone, 70 g/ha) | % visual injury, Ob (cleavers (GALAP); 4.375 g/ha, applied alone) | % visual injury, Ob (cleavers (GALAP); 8.75 g/ha, applied alone) | % visual injury, Ob (cleavers (GALAP); 17.5 g/ha, applied alone) | % visual injury, Ob (cleavers (GALAP); 35 g/ha, applied alone) | % visual injury, Ob (cleavers (GALAP); 70 g/ha, applied alone) | % visual injury, Ob (cleavers (GALAP); [1]) | % visual injury, Ob (cleavers (GALAP); [2]) | % visual injury, Ob (cleavers (GALAP); [3]) | % visual injury, Ob (cleavers (GALAP); compound 0 g/ha, CQC-m 35 g/ha) | % visual injury, Ob (cleavers (GALAP); compound 0 g/ha, CQC-m 70 g/ha) | % visual injury, Ob (chickweed (STEME)) | % visual injury, Ob (prickly lettuce (LACSE); LACSE, compound 0, CQC-m 4.375 g/ha) | % visual injury, Ob (prickly lettuce (LACSE); LACSE, compound 0, CQC-m 8.75 g/ha) | % visual injury, Ob (prickly lettuce (LACSE); LACSE, compound 0, CQC-m 17.5 g/ha) | % visual injury, Ob (prickly lettuce (LACSE); LACSE, compound 0, CQC-m 35 g/ha) | % visual injury, Ob (prickly lettuce (LACSE); LACSE, compound 0, CQC-m 70 g/ha) | % visual injury, Ob (prickly lettuce (LACSE); LACSE, compound 0 g/ha, CQC-m 4.375 g/ha) | % visual injury, Ob (prickly lettuce (LACSE); LACSE, compound 0 g/ha, CQC-m 8.75 g/ha) | % visual injury, Ob (prickly lettuce (LACSE); LACSE, compound 0 g/ha, CQC-m 17.5 g/ha) | % visual injury, Ob (prickly lettuce (LACSE); LACSE, compound 0 g/ha, CQC-m 35 g/ha) | % visual injury, Ob (prickly lettuce (LACSE); LACSE, compound 0 g/ha, CQC-m 70 g/ha) | % visual injury, Ob (prickly lettuce (LACSE); alone, 4.375 g/ha) | % visual injury, Ob (prickly lettuce (LACSE); alone, 8.75 g/ha) | % visual injury, Ob (prickly lettuce (LACSE); alone, 17.5 g/ha) | % visual injury, Ob (prickly lettuce (LACSE); alone, 35 g/ha) | % visual injury, Ob (prickly lettuce (LACSE); alone, 70 g/ha)
